Laboratory results from ChEMBL document CHEMBL3508693 (2016).

Key:
[1] = Excretion (0-24h) of radioactivity in urine following intravenous administration of [14C] aliskiren hemifumarate at 1 mg.Kg-1 level in marmoset; format: ADME, organism-based, Callithrix jacchus; settings: in vivo
[2] = Excretion (24h) of radioactivity in faeces following intravenous administration of [14C] aliskiren hemifumarate at 10 mg.Kg-1 level in rat; format: ADME, organism-based, Lister-Hooded, Feces; settings: in vivo
[3] = Excretion (168h) of radioactivity in faeces following intravenous administration of [14C] aliskiren hemifumarate at 10 mg.Kg-1 level in rat; format: ADME, organism-based, Lister-Hooded, Feces; settings: in vivo
[4] = Tmax of [14C] aliskiren hemifumarate following single oral dose of [14C] aliskiren hemifumarate at 500 mg.Kg-1 level in mouse; format: ADME, organism-based, TgRasH2, Plasma; settings: in vivo
[5] = Faecal elimination of aliskiren following single oral dose of [14C] aliskiren hemifumarate at 500 mg.Kg-1 level in mouse; format: ADME, organism-based, TgRasH2, Feces; settings: in vivo
[6] = Total excretion (0-72h) of radioactivity in urine, faeces and cage wash following single oral dose of 500 mg.Kg-1 [14C] aliskiren hemifumarate in mouse; format: ADME, organism-based, TgRasH2, Urine/Feces; settings: in vivo
[7] = Excretion of radioactivity (0-24h) in urine following single intravenous dose of 10 mg.Kg-1 [14C] aliskiren hemifumarate in rat; format: ADME, organism-based, Albino HAN:WIST; settings: in vivo
Cytochrome P450 2E1 = Cytochrome P450 2E1 (Homo sapiens, UniProt P05181); assay: Metabolic clearance (ul.min.nmol-1 CYP) of aliskiren hemifumarate for CYP2E1 was determined in human liver microsome incubated with [14C]SPP100 hemifumarate; format: ADME; settings: microsomes
[8] = Mean excretion of radioactivity (24-48h) in urine and faeces following single intravenous dose of 10 mg.Kg-1 [14C] aliskiren hemifumarate in rat; format: ADME, organism-based, Albino HAN:WIST, Urine/Feces; settings: in vivo
[9] = Concentration of radioactivity in the colon wall following repeated oral administration of [14C] aliskiren hemifumarate at 100 mg.Kg-1 level studied at 24h after 7th dose in rat; format: ADME, organism-based, Albino HAN:WIST; settings: in vivo
[10] = Concentration of radioactivity in the kidney medulla following repeated oral administration of [14C] aliskiren hemifumarate at 100 mg.Kg-1 level studied at 2h after 7th dose in rat; format: ADME, organism-based, Albino HAN:WIST, Renal medulla; settings: in vivo
[11] = Cmax normalised (0-168h) of total radioactivity following single oral administration of [14C] aliskiren hemifumarate at 3 mg.Kg-1 level in marmoset; format: ADME, organism-based, Callithrix jacchus, Plasma; settings: in vivo
[12] = Bioavailability (0-168h) of unlabeled aliskiren hemifumarate following single oral administration of aliskiren hemifumarate at 3 mg.Kg-1 level in marmoset; format: ADME, organism-based, Callithrix jacchus; settings: plasma
[13] = Hepatic blood flow (0-168h) of unlabeled aliskiren hemifumarate following single intravenous administration of aliskiren hemifumarate at 1 mg.Kg-1 level in marmoset; format: ADME, organism-based, Callithrix jacchus, Liver; settings: in vivo
[14] = Cmax of aliskiren hemifumarate following 8 day once-daily dosing of SPP100B oral solution at 160 mg level studied on day 8 in men; format: ADME, organism-based; settings: male, human, plasma
[15] = Tmax of aliskiren hemifumarate following 8 day once-daily dosing of SPP100B oral solution at 40 mg level studied on day 8 in men; format: ADME, organism-based; settings: male, human, plasma
[16] = Tmax of aliskiren hemifumarate following 8 day once-daily dosing of SPP100B oral solution at 640 mg level studied on day 8 in men; format: ADME, organism-based; settings: male, human, plasma
[17] = target: Voltage-gated inwardly rectifying potassium channel KCNH2 (Homo sapiens, UniProt Q12809); assay: Inhibitory concentration of aliskiren hemifumarate against cloned hERG channel expressed in human embryonic kidney cell; format: cell-based; settings: hek293
[18] = Cmax of unlabeled aliskiren hemifumarate following single intravenous dose of aliskiren hemifumarate at 10 mg.Kg-1 level in mouse; format: ADME, organism-based; settings: TgRasH2, mouse, plasma
[19] = Effect of 2 week oral dosing of aliskiren hemifumarate at 100 mg.Kg-1 level on plasma magnesium level in male Callithrix jacchus; format: toxicity, organism-based; settings: marmoset, 336 h
[20] = Effect of 2 week oral dosing of aliskiren hemifumarate at 100 mg.Kg-1 level on plasma magnesium level in female Callithrix jacchus; format: toxicity, organism-based; settings: marmoset, 336 h
[21] = Cmax of aliskiren hemifumarate following 2 week oral dosing of aliskiren hemifumarate at 50 mg.Kg-1 level studied on day 1 in male Callithrix jacchus; format: ADME, organism-based; settings: marmoset, plasma
[22] = Cmax of aliskiren hemifumarate following 2 week oral dosing of aliskiren hemifumarate at 100 mg.Kg-1 level studied on day 1 in male Callithrix jacchus; format: ADME, organism-based; settings: marmoset, plasma
[23] = Effect of 4 week oral dietary dosing of aliskiren hemifumarate at 2000 mg.Kg-1 level on histopathology of corpora lutea in female mouse; format: toxicity, organism-based, CB6F1-TGrasH2, Corpus luteum; settings: in vivo, 672 h
[24] = Effect of 4 week oral dietary dosing of aliskiren hemifumarate at 2000 mg.Kg-1 level on density of uterine gland in female mouse; format: toxicity, organism-based, CB6F1-TGrasH2, Endometrial gland; settings: in vivo, 672 h
[25] = Cmax of aliskiren hemifumarate following 4 week oral dietary dosing of aliskiren hemifumarate at 2000 mg.Kg-1 level in male mouse; format: ADME, organism-based; settings: CB6F1-TGrasH2, mouse, in vivo
[26] = Cmaxspec of aliskiren hemifumarate following 2 week oral dosing of aliskiren hemifumarate at 100 mg.Kg-1 level studied on day 14 in male Callithrix jacchus; format: ADME, organism-based, Plasma; settings: marmoset, in vivo, 336 h
[27] = Cmaxspec of aliskiren hemifumarate following 2 week oral dosing of aliskiren hemifumarate at 10 mg.Kg-1 level studied on day 14 in female Callithrix jacchus; format: ADME, organism-based, Plasma; settings: marmoset, in vivo, 336 h
[28] = Cmaxspec of aliskiren hemifumarate following 2 week oral dosing of aliskiren hemifumarate at 100 mg.Kg-1 level studied on day 14 in female Callithrix jacchus; format: ADME, organism-based, Plasma; settings: marmoset, in vivo, 336 h
[29] = AUC (0-24h)/dose of aliskiren hemifumarate following 4 week oral dietary dosing of aliskiren hemifumarate at 2000 mg.Kg-1 level in male mouse; format: ADME, organism-based, CB6F1-TGrasH2, Plasma; settings: in vivo
[30] = AUC (0-24h)/dose of aliskiren hemifumarate following 4 week oral dietary dosing of aliskiren hemifumarate at 1500 mg.Kg-1 level in female mouse; format: ADME, organism-based, CB6F1-TGrasH2, Plasma; settings: in vivo
[31] = t1/2 of aliskiren hemifumarate following 2 week oral dosing of aliskiren hemifumarate at 100 mg.Kg-1 level studied on day 1 in male Callithrix jacchus; format: ADME, organism-based; settings: marmoset, plasma
[32] = AUCspec of aliskiren hemifumarate following 2 week oral dosing of aliskiren hemifumarate at 100 mg.Kg-1 level studied on day 1 in male Callithrix jacchus; format: ADME, organism-based, Plasma; settings: marmoset, in vivo, 336 h
[33] = AUCspec of aliskiren hemifumarate following 2 week oral dosing of aliskiren hemifumarate at 10 mg.Kg-1 level studied on […] in male Callithrix jacchus; format: ADME, organism-based, Plasma; settings: marmoset, in vivo, 336 h
[34] = Terminal elimination half-life of SPP100 following single oral dose of SPP100 75 mg capsule studied in healthy human; format: ADME, organism-based; settings: plasma
[35] = Terminal elimination half-life of SPP100 following single oral dose of SPP100 600 mg capsule studied in healthy human; format: ADME, organism-based; settings: plasma
[36] = % SPP100 (0-72h) recovered in faeces following single intravenous dose of [14C] aliskiren hemifumarate at 1 mg.Kg-1 level in marmoset; format: ADME, organism-based, Callithrix jacchus, Feces; settings: in vivo
CYP2C9 = CYP2C9 (Homo sapiens, UniProt P11712); assay: Inhibitory activity of 200 uM SPP100 on 222 Pmoles of cDNA-derived CYP2C9 enzyme in microsome prepared from human lymphoblastoid cell line; format: ADME, microsomes; design: conc 200 uM, interact cpd conc 6 uM; settings: probe diclofenac
CYP3A4 = CYP3A4 (Homo sapiens, UniProt P08684); assay: Inhibitory activity of 200 µM SPP100 on cDNA-derived CYP3A4 enzyme in microsome prepared from human lymphoblastoid cell line; format: ADME, microsomes; design: conc 200 uM, interact cpd conc 120 uM; settings: probe testosterone (120 uM)
[37] = % of radioactivity recovered as aliskiren in faeces following intravenous administration of [14C] aliskiren hemifumarate at 10 mg.Kg-1 level in rat; format: ADME, organism-based, Albino HAN:WIST, Feces; settings: in vivo

Chain of Voltage-gated inwardly rectifying potassium channel KCNH2 (Q12809 whole entry): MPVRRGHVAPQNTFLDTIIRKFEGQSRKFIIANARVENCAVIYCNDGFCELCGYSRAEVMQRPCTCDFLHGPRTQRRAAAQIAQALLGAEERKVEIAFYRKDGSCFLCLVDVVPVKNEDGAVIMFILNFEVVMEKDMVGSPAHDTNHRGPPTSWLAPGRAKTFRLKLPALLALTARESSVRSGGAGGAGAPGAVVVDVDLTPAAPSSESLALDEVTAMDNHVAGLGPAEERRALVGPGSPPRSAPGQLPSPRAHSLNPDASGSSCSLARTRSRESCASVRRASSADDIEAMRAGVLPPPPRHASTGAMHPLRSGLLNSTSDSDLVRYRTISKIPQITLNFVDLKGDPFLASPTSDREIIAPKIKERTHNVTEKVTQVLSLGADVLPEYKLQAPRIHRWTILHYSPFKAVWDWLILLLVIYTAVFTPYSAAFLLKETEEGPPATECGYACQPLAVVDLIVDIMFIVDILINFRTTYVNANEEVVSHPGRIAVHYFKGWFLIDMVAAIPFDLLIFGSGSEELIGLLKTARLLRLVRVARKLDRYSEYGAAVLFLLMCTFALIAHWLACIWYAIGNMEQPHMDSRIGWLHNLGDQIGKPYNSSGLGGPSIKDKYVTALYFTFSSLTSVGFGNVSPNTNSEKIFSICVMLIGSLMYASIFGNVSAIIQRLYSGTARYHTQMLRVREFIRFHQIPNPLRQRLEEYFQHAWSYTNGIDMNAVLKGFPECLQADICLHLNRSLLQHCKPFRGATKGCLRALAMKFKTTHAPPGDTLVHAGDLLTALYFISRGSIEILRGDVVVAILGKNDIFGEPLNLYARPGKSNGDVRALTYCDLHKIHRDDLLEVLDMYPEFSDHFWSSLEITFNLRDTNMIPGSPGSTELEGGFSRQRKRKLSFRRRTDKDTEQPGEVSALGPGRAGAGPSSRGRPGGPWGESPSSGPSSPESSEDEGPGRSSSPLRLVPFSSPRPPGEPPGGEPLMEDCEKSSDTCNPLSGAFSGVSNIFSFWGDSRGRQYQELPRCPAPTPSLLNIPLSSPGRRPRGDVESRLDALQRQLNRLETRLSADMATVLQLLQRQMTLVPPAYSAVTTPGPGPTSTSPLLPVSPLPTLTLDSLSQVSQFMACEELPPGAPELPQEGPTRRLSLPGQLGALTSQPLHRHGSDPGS
Chain of CYP2C9 (P11712 whole entry): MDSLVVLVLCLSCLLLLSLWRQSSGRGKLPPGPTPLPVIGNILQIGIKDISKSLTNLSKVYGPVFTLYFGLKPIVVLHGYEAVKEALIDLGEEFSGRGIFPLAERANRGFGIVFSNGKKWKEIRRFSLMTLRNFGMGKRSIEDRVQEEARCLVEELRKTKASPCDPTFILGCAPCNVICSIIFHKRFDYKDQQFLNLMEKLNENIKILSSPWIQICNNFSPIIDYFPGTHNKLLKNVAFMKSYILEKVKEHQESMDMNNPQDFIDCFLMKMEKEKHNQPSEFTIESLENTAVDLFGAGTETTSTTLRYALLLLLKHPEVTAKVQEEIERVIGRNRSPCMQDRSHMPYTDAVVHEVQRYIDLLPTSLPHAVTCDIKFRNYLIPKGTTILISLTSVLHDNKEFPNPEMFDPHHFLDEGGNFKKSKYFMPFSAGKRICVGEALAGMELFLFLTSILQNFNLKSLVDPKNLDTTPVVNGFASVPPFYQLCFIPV
Chain of CYP3A4 (P08684 whole entry): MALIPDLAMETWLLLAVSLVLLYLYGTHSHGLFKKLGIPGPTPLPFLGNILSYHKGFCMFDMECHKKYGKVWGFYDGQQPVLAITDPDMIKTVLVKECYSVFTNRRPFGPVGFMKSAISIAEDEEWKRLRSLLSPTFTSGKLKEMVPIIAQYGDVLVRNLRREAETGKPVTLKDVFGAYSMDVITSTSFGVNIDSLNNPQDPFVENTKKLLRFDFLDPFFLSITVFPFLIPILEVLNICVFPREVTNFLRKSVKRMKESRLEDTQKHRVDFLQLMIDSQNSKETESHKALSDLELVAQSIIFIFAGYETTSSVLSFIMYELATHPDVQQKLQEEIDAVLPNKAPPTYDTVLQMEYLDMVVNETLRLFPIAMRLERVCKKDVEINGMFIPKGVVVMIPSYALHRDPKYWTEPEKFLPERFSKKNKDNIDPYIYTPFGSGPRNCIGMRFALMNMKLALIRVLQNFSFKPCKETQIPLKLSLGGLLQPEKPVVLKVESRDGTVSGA
Chain of Cytochrome P450 2E1 (P05181 whole entry): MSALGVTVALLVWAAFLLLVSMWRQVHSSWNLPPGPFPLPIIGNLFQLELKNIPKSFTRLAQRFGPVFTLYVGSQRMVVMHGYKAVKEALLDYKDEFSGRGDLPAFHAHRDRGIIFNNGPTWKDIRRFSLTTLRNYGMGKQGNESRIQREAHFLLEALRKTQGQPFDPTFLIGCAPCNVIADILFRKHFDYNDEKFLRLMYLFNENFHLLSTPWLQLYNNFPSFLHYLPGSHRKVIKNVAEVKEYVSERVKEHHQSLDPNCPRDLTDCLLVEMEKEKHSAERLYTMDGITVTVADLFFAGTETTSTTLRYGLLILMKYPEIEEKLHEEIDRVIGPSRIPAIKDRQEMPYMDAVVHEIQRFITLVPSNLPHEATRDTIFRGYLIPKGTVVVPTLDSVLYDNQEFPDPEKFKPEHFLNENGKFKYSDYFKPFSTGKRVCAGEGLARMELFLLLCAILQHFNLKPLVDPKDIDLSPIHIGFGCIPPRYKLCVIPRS

## COCCCOc1cc(C[C@@H](C[C@H](N)[C@@H](O)C[C@H](C(=O)NCC([14CH3])([14CH3])C(N)=O)C(C)C)C(C)C)ccc1OC.O=C(O)/C=C/C(=O)O
[1]
  Radiolabel recovery: 0.61%
[2]
  Radiolabel recovery: 66%
[3]
  Radiolabel recovery: 75%
[4]
  Tmax: 1 h
[5]
  Radiolabel recovery: OUTCOME = Observed, VALUE = Elimination of aliskiren occurred mainly via the biliary or faecal route
[6]
  Radiolabel recovery: 94.44%
[7]
  Radiolabel recovery: 35.6%
Cytochrome P450 2E1
  CL: 1.4 µL·min/nmol
[8]
  Radiolabel recovery: 28.9%
[9]
  Radiolabel recovery: OUTCOME = Observed, VALUE = Highest radioactivity concentration was observed
[10]
  Radiolabel recovery: OUTCOME = Detected
[11]
  Cmax normalised: 0.12 (umol/L)/(mg/kg)

## COCCCOc1cc(C[C@@H](C[C@H](N)[C@@H](O)C[C@H](C(=O)NCC(C)(C)C(N)=O)C(C)C)C(C)C)ccc1OC.COCCCOc1cc(C[C@@H](C[C@H](N)[C@@H](O)C[C@H](C(=O)NCC(C)(C)C(N)=O)C(C)C)C(C)C)ccc1OC.O=C(O)/C=C/C(=O)O [ALISKIREN FUMARATE]
[12]
  bioavailability: 3%
[13]
  Hepatic blood flow: 2.8 L·h/kg
[14]
  Cmax: 39.1 ng/mL
[15]
  Tmax: 2.1 h
[16]
  Tmax: 3.2 h
[17]
  IC25: 670.9 µM
  IC50: OUTCOME = IC50 was not calculated since inhibition did not reach 50% level
[18]
  Cmax: 19.8 µM
[19]
  Plasma magnesium_CHANGE_BY: 130%
[20]
  Plasma magnesium_CHANGE_BY: 130%
[21]
  Cmax: 6290 ng/mL
[22]
  Cmax: 7200 ng/mL
[23]
  Change in corpora lutea: OUTCOME = Absence of corpora lutea. No animals died during the study.
[24]
  Change in density of uterine gland: OUTCOME = Decreased. No animals died during the study.
[25]
  Cmax: 439 ng/mL
[26]
  Cmax normalised: 0.097 (ug/ml)/(mg/kg)
[27]
  Cmax normalised: 0.673 (ug/ml)/(mg/kg)
[28]
  Cmax normalised: 0.106 (ug/ml)/(mg/kg)
[29]
  AUC normalised: 3.86 ((ng/mL).hours)/(mg/kg/day)
[30]
  AUC normalised: 3.65 ((ng/mL).hours)/(mg/kg/day)
[31]
  half-life: 12.8 h
[32]
  AUC normalised: 0.764 ((ug.h.ml-1)/(mg/kg)
[33]
  AUC normalised: 3.39 ((ug.h.ml-1)/(mg/kg)

## COCCCOc1cc(C[C@@H](C[C@H](N)[C@@H](O)C[C@H](C(=O)NCC(C)(C)C(N)=O)C(C)C)C(C)C)ccc1OC
[34]
  half-life: 54 h
[35]
  half-life: 34 h
[36]
  Compound recovery: 36%
CYP2C9
  inhibition at 200 µM: 14.9%
CYP3A4
  inhibition at 200 µM: 11%
[37]
  Compound recovery: > 40%
